Measured values reported in ChEMBL document CHEMBL5126521, “Analgesic Opioid Ligand Discovery Based on Nonmorphinan Scaffolds Derived from Natural Sources” (J Med Chem, 2022).
Square brackets hold non-standard residues; d marks the D form. Peptide text beside a SMILES is read from it. βAla = NCCC(=O)O; Sar = CNCC(=O)O

What was measured:
[1] = biological target: T1, Kappa-type opioid receptor (Mus musculus, UniProt P33534); experiment: Displacement of [3H]U69593 from C57BL6/J mouse brain KOP; format: tissue-based
[2] = biological target: T1, Kappa-type opioid receptor; experiment: Agonist activity at C57BL6/J mouse brain KOP; format: functional, tissue-based
[3] = biological target: T1, Kappa-type opioid receptor; experiment: Agonist activity at C57BL6/J mouse brain KOP by calcium mobilization assay; format: functional, tissue-based
[4] = tested on: Rattus norvegicus; experiment: Antinociceptive activity in rat administered IT; format: functional
[5] = tested on: Mus musculus; experiment: Antinociceptive activity in mouse administered IT; format: functional
[6] = tested on: Rattus norvegicus; experiment: Antinociceptive activity in rat administered iv; format: functional
[7] = biological target: T2, Kappa-type opioid receptor (Cavia porcellus, UniProt P41144); experiment: Displacement of [3H]U69593 from guinea pig cerebellum KOP by competitive binding assay; format: tissue-based
[8] = Displacement of [3H]DPDPE from calf frontal cortex membrane Delta-type opioid receptor by competitive binding assay; format: cell membranes, Bos taurus
[9] = biological target: Mu-type opioid receptor (Bos taurus, UniProt P79350); experiment: Displacement of [3H]DAMGO from calf thalamus membrane MOP by competitive binding assay; format: cell membranes
[10] = organism: Rattus norvegicus; experiment: Antinociceptive activity in rat; format: functional
[11] = biological target: T3, Mu-type opioid receptor (Cavia porcellus, UniProt P97266); experiment: (§1) Antagonist activity at guinea pig ileum MOP; format: functional, tissue-based
[12] = biological target: Mu-type opioid receptor (Cavia porcellus) (UniProt P97266); experiment: as §1; format: functional, tissue-based; conditions: filed as antagonist
[13] = tested on: Mus musculus; experiment: Antinociceptive activity in mouse administered po; format: functional
[14] = Toxicity in rat assessed as inhibition of gastrointestinal transit at 100 to 300 pmol icv or IT by charcoal meal test; conditions: in vivo, icv_or_intrathecal, dose 100-300 pmol
[15] = tested on: Rattus norvegicus; experiment: Antinociceptive activity in rat administered sc; format: functional
[16] = tested on: Mus musculus; experiment: Antinociceptive activity in ip dosed C57BL/6J mouse assessed as tail withdrawal latency from warm water; format: functional
[17] = biological target: T4, Delta-type opioid receptor (Homo sapiens, UniProt P41143); experiment: Inhibition of DOP (unknown origin)
[18] = biological target: Mu-type opioid receptor (Homo sapiens, UniProt P35372); experiment: Inhibition of MOP (unknown origin)
[19] = biological target: T5, Kappa-type opioid receptor (Homo sapiens, UniProt P41145); experiment: Inhibition of KOP (unknown origin)
[20] = biological target: T4, Delta-type opioid receptor; experiment: Binding affinity to DOP (unknown origin)
[21] = tested on: Mus musculus; experiment: Antinociceptive activity in sc dosed mouse by tail flick assay; format: functional
[22] = tested on: Mus musculus; experiment: Antinociceptive activity in po dosed mouse by hot plate assay; format: functional
[23] = tested on: Mus musculus; experiment: Antinociceptive activity in po dosed mouse by tail flick assay; format: functional
[24] = biological target: T3, Mu-type opioid receptor; experiment: Displacement of [3H]DAMGO from guinea pig brain membrane MOP incubated for 1 hr by scintillation counter analysis; format: cell membranes
[25] = tested on: Mus musculus; experiment: Antinociceptive activity in sc dosed mouse by hot plate assay; format: functional
[26] = tested on: Mus musculus; experiment: Antinociceptive activity in sc dosed mouse; format: functional
[27] = Toxicity in po dosed mouse assessed as antinociceptive activity tolerance by tail flick assay; format: organism-based; conditions: in vivo
[28] = tested on: Mus musculus; experiment: Antinociceptive activity in po dosed visceral pain mouse model; format: functional
[29] = biological target: T2, Kappa-type opioid receptor; experiment: Displacement of [3H]U69593 from guinea pig brain membrane KOP incubated for 1 hr by scintillation counter analysis; format: cell membranes
[30] = Toxicity in po dosed mouse assessed as antinociceptive activity tolerance by hot plate assay; format: organism-based; conditions: in vivo
[31] = Displacement of [3H]naltrindole from guinea pig brain membrane DOP incubated for 3 hr by scintillation counter analysis; format: cell membranes, Cavia porcellus
[32] = biological target: T5, Kappa-type opioid receptor; experiment: Agonist activity at KOP (unknown origin); format: functional

`CCC(=O)O[C@H]1C[C@@H](C(=O)OC)[C@]2(C)CC[C@H]3C(=O)O[C@H](c4ccoc4)C[C@]3(C)[C@H]2C1=O` gave a Ki [1] of 0.0326 µM, an EC50 [2] of 0.017 µM and an EC50 [3] of 0.102 µM.
With `CN(CC(=O)O)C(=O)[C@H](Cc1ccccc1)NC(=O)[C@@H](CCCN=C(N)N)NC(=O)[C@@H](N)Cc1ccc(O)cc1` (H-Y[dR]F[Sar]-OH) the ED50 [4] was 18 pmol, the ED50 [5] was 4.5 pmol and the ED50 [6] was 0.8 µmol/kg. It also gave a Ki [7] of over 10 µM, a Ki [8] of 0.562 µM and a Ki [9] of 0.0005 µM. It also gave an ED50 [10] of 4.1 pmol, an IC50 [11] of 0.0069 µM and an IC20 [12] of 0.021 µM. It also gave an ED50 [13] of 26 µmol/kg, an ED50 [14] of 0.053 mg/kg and an ED50 [15] of 0.61 mg/kg.
Work on `O=C1NCCC(=O)N2CCC[C@@H]2C(=O)N[C@@H](Cc2ccccc2)C(=O)N[C@H]1Cc1c[nH]c2ccccc12` (cyclo(FW[βAla][dP])) yielded an ED50 [16] of 0.64 mg/kg.
In the case of `C=C[C@H]1CN2CCc3c([nH]c4cccc(OC)c34)[C@@H]2C[C@@H]1/C(=C\OC)C(=O)OC`, the IC50 [17] is reported as over 10 µM, the IC50 [18] is reported as 2.2 µM and the IC50 [19] is reported as 10 µM. The Ki [20] was over 10 µM.
With `CC[C@@H]1CN2CC[C@@]34OCCO[C@@]3(Nc3ccc(F)c(OC)c34)[C@@H]2C[C@@H]1/C(=C\OC)C(=O)OC` the ED50 [21] was 0.6 mg/kg, the ED50 [22] was 3 mg/kg and the ED50 [23] was 2.8 mg/kg. It also gave a Ki [24] of 0.0073 µM, an ED50 [25] of 0.7 mg/kg and an ED50 [26] of 0.1 mg/kg. For the same compound, the ED50 [27] was 11.1 mg/kg, the ED50 [28] was 0.6 mg/kg and the Ki [29] was 0.018 µM. It also gave an ED50 [30] of 1.3 mg/kg and a Ki [31] of 0.35 µM.
Compound `CC[C@@H]1CN2CCc3c([nH]c4cccc(OC)c34)[C@@H]2C[C@@H]1/C(=C\OC)C(=O)OC` has an IC50 [17] of over 10 µM, an ED50 [23] of 2.1 mg/kg and an EC50 [32] of 8.5 µM. The Ki [20] was over 10 µM.
